# Source: publication PMC6218659, “Structures of DPAGT1 Explain Glycosylation Disease Mechanisms and Advance TB Antibiotic Design” (Cell, 2018)
# Read-outs that look alike come from different tables or passages of the source.
# How the values were obtained:
# Mtb H37Rv ATCC27294 = experiment: Minimum inhibitory concentrations testing against Mtb; type: cell-based, Mycobacterium tuberculosis; settings: for MIC: Mycobacterium tuberculosis; for Relative Therapeutic Index (RTI), Mtb H37RV a / Relative Therapeutic Index (RTI), Mtb H37RV b: minimal lethal dose / MIC, 800 μg mL-1 used for >400; for Relative Therapeutic Index (RTI), Mtb H37RV a: 7H9/ADC/Tw; for Relative Therapeutic Index (RTI), Mtb H37RV b: GAST/Fe
# HEK293 cells = experiment: Cell proliferation assay (MTS); type: cell-based, human; settings: for LD50 values, HEK293: MTS cell proliferation assay, 24 hrs, highest concentration 400 µg mL-1; for Minimal Lethal Dose, HEK 293: serial 2-fold dilutions (Table S6)
# Protocol: (§1) In sterile 96-well plate, each well was seeded with ∼1x10^5 cells. The cells are then grown confluent overnight in 100 μl DMEM with 10% FBS. The medium is replenished with DMEM with 2% FBS and added vehicle control or test substance the next day. For test substance in methanol, stock was added to 25 μl of DMEM with 2% FBS or PBS and placed in the laminar flow hood to let the methanol evaporate (about 1-3 hrs). Once the methanol has evaporated, DMEM with 2% FBS was added to final volume of 100 μl of desired test concentration. […] Cells are grown for additional 24 hrs. The cell viability was determined by using Promega CellTiter 96^© AQueous One Solution Cell Proliferation Assay (3-(4,5-dimethylthiazol-2-yl)-5-(3-carboxymethoxyphenyl)-2-(4-sulfophenyl)-2H-tetrazolium, inner salt; MTS) System following the manufacture protocol.
# HepG2 cells = experiment: Cell proliferation assay (MTS); type: cell-based, human; settings: for LD50 values, HepG2: MTS cell proliferation assay, 24 hrs, highest concentration 400 µg mL-1; for Minimal Lethal Dose, HepG2: serial 2-fold dilutions (Table S6)
# Protocol: as §1
# Raji cells = experiment: Cell proliferation assay (MTS); type: cell-based, human; settings: 24 hrs
# Protocol: as §1
# B. subtilis EC1524 = experiment: Micro-broth dilution and drop plate antimicrobial susceptibility test; type: cell-based, Bacillus subtilis; settings: for IC50 / MBC / MIC: Bacillus subtilis; for Relative Therapeutic Index (RTI), B. subtilis EC1524: minimal lethal dose / MIC, 800 μg mL-1 used for >400
# Protocol: (§2) In a sterile 96-well plate, serial dilutions were made with the test substance to final volume of 50 μl. Inoculum was then prepared in Mueller-Hinton broth to 0.5 McFarland and diluted before adding 50 μl to the well to make ∼1x10^5 CFU/ml. The culture plate was incubated at 35 °C for 20-24 hrs. A positive growth control and sterility wells were also prepared along with the culture wells. Absorbance at OD600 was taken using BMG Labtech SPECTROstar Omega spectrophotometer. MIC is determined by the lowest concentration without growth. IC50 is determined from plotting a dose-response curve, see Data Analysis below. To determine the MBC, using a multi-channel pipette, 1 μl of culture broth was taken from the same 96-well microdilution growth plate and carefully inoculated on surface of MH agar plate. The plate is then incubated for additional 20 hrs. at 35 °C. The MBC value is the lowest concentration without observed growth on the agar.
# B. cereus ATCC11778 = experiment: as above; type: cell-based, Bacillus cereus; settings: for IC50 / MBC / MIC: Bacillus cereus; for Relative Therapeutic Index (RTI), B. cereus NRRL 11778: minimal lethal dose / MIC, 800 μg mL-1 used for >400
# Protocol: as §2
# E. coli ATCC25922 = experiment: as above; type: cell-based; settings: Escherichia coli
# Protocol: as §2
# P. aeruginosa ATCC27853 = experiment: as above; type: cell-based; settings: Pseudomonas aeruginosa
# Protocol: as §2
# S. aureus ATCC29219 = experiment: as above; type: cell-based; settings: Staphylococcus aureus
# Protocol: as §2
# [1] = 168 h, Mtb H37Rv, minimal growth medium, read-out: 1-week MIC in GAST/Fe
# [2] = 168 h, Mtb H37Rv, rich 7H9-based growth medium, read-out: 1-week MIC in 7H9/ADC/Tw
# [3] = EC1524, read-out: Minimal Inhibitory Concentration, B. subtilis EC1524
# [4] = ATCC 11778 / NRRL11778, read-out: Minimal Inhibitory Concentration, B. cereus NRRL 11778
# [5] = 168 h, read-out: 1-week MIC in 7H9/ADC/Tw
# [6] = 168 h, read-out: 1-week MIC in GAST/Fe
# [7] = 168 h, read-out: Minimal Inhibitory Concentration, Mtb H37RV a
# [8] = 168 h, read-out: Minimal Inhibitory Concentration, Mtb H37RV b
compound,measurement,setting,value
"CC(=O)N[C@H]1C(O)O[C@H](C[C@@H](O)[C@H]2O[C@@H](n3ccc(=O)[nH]c3=O)[C@H](O)[C@@H]2O)[C@H](O)[C@@H]1O (stereo partly drawn) [(2), N-acetyl-tunicamyl-uracil]",MIC,Mtb H37Rv ATCC27294; [1],42.5 ± 3.5 µg/mL
same,MIC,Mtb H37Rv ATCC27294; [2],> 60 µg/mL
same,"LD50 values, HEK293",HEK293 cells,"N/A (N/A = not available. No or low cytotoxicity observed at highest, saturating concentration tested (400 µg mL-1))"
same,"LD50 values, HepG2",HepG2 cells,"N/A (N/A = not available. No or low cytotoxicity observed at highest, saturating concentration tested (400 µg mL-1))"
same,"LD50 values, Raji",Raji cells,303.80 ± 9.83 µg/mL
"N[C@@H]1CON=C1O [D-cycloserine, reference compound]",MIC,"Mtb H37Rv ATCC27294; Mtb H37Rv, used for macromolecular incorporation assay, read-out: MIC concentrations for controls",29 µM
"NNC(=O)c1ccncc1 [Isoniazid, reference compound]",MIC,"Mtb H37Rv ATCC27294; Mtb H37Rv, tested from 0.024 - 50 μM, read-out: MIC of positive control",0.2 ± 0.1 µM
"CCCCCCC(=O)N[C@H]1[C@H](O[C@H]2O[C@H](CO)[C@@H](O)[C@H](O)[C@H]2NC(=O)CCCCCC)O[C@H](C[C@@H](O)[C@H]2O[C@@H](n3ccc(=O)[nH]c3=O)[C@H](O)[C@@H]2O)[C@H](O)[C@@H]1O [TUN-7,7, Di-N-heptanoyl tunicamycin]",IC50,B. subtilis EC1524; EC1524,3.12 ± 1.04 µg/mL
same,MBC,B. subtilis EC1524; EC1524,> 50 µg/mL
same,MIC,B. subtilis EC1524; EC1524,5.2 ± 1.8 µg/mL
same,MIC,B. subtilis EC1524; [3],6.25 µg/mL
same,"Relative Therapeutic Index (RTI), B. subtilis EC1524",B. subtilis EC1524,128
same,IC50,B. cereus ATCC11778; ATCC11778,13.3 µg/mL
same,MBC,B. cereus ATCC11778; ATCC11778,> 200 µg/mL
same,MIC,B. cereus ATCC11778; ATCC11778,83 ± 29 µg/mL
same,MIC,B. cereus ATCC11778; [4],100 µg/mL
same,"Relative Therapeutic Index (RTI), B. cereus NRRL 11778",B. cereus ATCC11778,8
same,IC50,E. coli ATCC25922,131 µg/mL
same,MBC,E. coli ATCC25922,> 400 µg/mL
same,MIC,E. coli ATCC25922,330 ± 120 µg/mL
same,IC50,P. aeruginosa ATCC27853,62.4 µg/mL
same,MBC,P. aeruginosa ATCC27853,> 400 µg/mL
same,MIC,P. aeruginosa ATCC27853,83 ± 29 µg/mL
same,IC50,S. aureus ATCC29219,80.5 µg/mL
same,MBC,S. aureus ATCC29219,> 400 µg/mL
same,MIC,S. aureus ATCC29219,170 ± 60 µg/mL
same,MIC,Mtb H37Rv ATCC27294; [5],5 ± 3.5 µg/mL
same,MIC,Mtb H37Rv ATCC27294; [6],1.6 ± 1.8 µg/mL
same,MIC,Mtb H37Rv ATCC27294; [7],5 µg/mL
same,MIC,Mtb H37Rv ATCC27294; [8],1.6 µg/mL
same,"Relative Therapeutic Index (RTI), Mtb H37RV a",Mtb H37Rv ATCC27294,160
same,"Relative Therapeutic Index (RTI), Mtb H37RV b",Mtb H37Rv ATCC27294,500
same,"LD50 values, HEK293",HEK293 cells,"N/A (N/A = not available. No or low cytotoxicity observed at highest, saturating concentration tested (400 µg mL-1))"
same,"Minimal Lethal Dose, HEK 293",HEK293 cells,> 400 µg/mL
same,"LD50 values, HepG2",HepG2 cells,"N/A (N/A = not available. No or low cytotoxicity observed at highest, saturating concentration tested (400 µg mL-1))"
same,"Minimal Lethal Dose, HepG2",HepG2 cells,> 400 µg/mL
same,"LD50 values, Raji",Raji cells,431.10 ± 241.81 µg/mL
"CCCCCCCCCCCC(=O)N[C@H]1[C@H](O[C@H]2O[C@H](CO)[C@@H](O)[C@H](O)[C@H]2NC(=O)CCCCCCCCCCC)O[C@H](C[C@@H](O)[C@H]2O[C@@H](n3ccc(=O)[nH]c3=O)[C@H](O)[C@@H]2O)[C@H](O)[C@@H]1O [TUN-12,12, Di-N-dodecanoyl-tunicamycin]",IC50,B. subtilis EC1524; EC1524,58.9 µg/mL
same,MBC,B. subtilis EC1524; EC1524,> 200 µg/mL
same,MIC,B. subtilis EC1524; EC1524,83 ± 29 µg/mL
same,MIC,B. subtilis EC1524; [3],100 µg/mL
same,"Relative Therapeutic Index (RTI), B. subtilis EC1524",B. subtilis EC1524,8
same,IC50,B. cereus ATCC11778; ATCC11778,1.4 ± 0.47 µg/mL
same,MBC,B. cereus ATCC11778; ATCC11778,> 200 µg/mL
same,MIC,B. cereus ATCC11778; ATCC11778,42 ± 14 µg/mL
same,MIC,B. cereus ATCC11778; [4],50 µg/mL
same,"Relative Therapeutic Index (RTI), B. cereus NRRL 11778",B. cereus ATCC11778,16
same,IC50,E. coli ATCC25922,182 µg/mL
same,MBC,E. coli ATCC25922,> 400 µg/mL
same,MIC,E. coli ATCC25922,330 ± 120 µg/mL
same,IC50,P. aeruginosa ATCC27853,81.7 µg/mL
same,MBC,P. aeruginosa ATCC27853,> 400 µg/mL
same,MIC,P. aeruginosa ATCC27853,170 ± 6 µg/mL
same,IC50,S. aureus ATCC29219,61.9 µg/mL
same,MBC,S. aureus ATCC29219,> 400 µg/mL
same,MIC,S. aureus ATCC29219,170 ± 60 µg/mL
same,MIC,Mtb H37Rv ATCC27294; [5],18.7 ± 5.4 µg/mL
same,MIC,Mtb H37Rv ATCC27294; [6],6.9 ± 6.2 µg/mL
same,MIC,Mtb H37Rv ATCC27294; [7],18.7 µg/mL
same,MIC,Mtb H37Rv ATCC27294; [8],6.9 µg/mL
same,"Relative Therapeutic Index (RTI), Mtb H37RV a",Mtb H37Rv ATCC27294,43
same,"Relative Therapeutic Index (RTI), Mtb H37RV b",Mtb H37Rv ATCC27294,116
same,"LD50 values, HEK293",HEK293 cells,"N/A (N/A = not available. No or low cytotoxicity observed at highest, saturating concentration tested (400 µg mL-1))"
same,"Minimal Lethal Dose, HEK 293",HEK293 cells,> 400 µg/mL
same,"LD50 values, HepG2",HepG2 cells,"N/A (N/A = not available. No or low cytotoxicity observed at highest, saturating concentration tested (400 µg mL-1))"
same,"Minimal Lethal Dose, HepG2",HepG2 cells,> 400 µg/mL
same,"LD50 values, Raji",Raji cells,81.29 ± 30.20 µg/mL
"CC(=O)N[C@H]1[C@H](O[C@H]2O[C@H](CO)[C@@H](O)[C@H](O)[C@H]2NC(C)=O)O[C@H](C[C@@H](O)[C@H]2O[C@@H](n3ccc(=O)[nH]c3=O)[C@H](O)[C@@H]2O)[C@H](O)[C@@H]1O [TUN-Ac,Ac, α-D-N-acetylglucosamine-(1”-11')-N-acetyl tunicamyl uracil]",MIC,Mtb H37Rv ATCC27294; [1],21.3 ± 1.8 µg/mL
same,MIC,Mtb H37Rv ATCC27294; [2],≥ 60 µg/mL
same,"LD50 values, HEK293",HEK293 cells,"N/A (N/A = not available. No or low cytotoxicity observed at highest, saturating concentration tested (400 µg mL-1))"
same,"LD50 values, HepG2",HepG2 cells,"N/A (N/A = not available. No or low cytotoxicity observed at highest, saturating concentration tested (400 µg mL-1))"
same,"LD50 values, Raji",Raji cells,212.30 ± 51.48 µg/mL
"CC(C)(C)OC(=O)N[C@H]1[C@H](O[C@H]2O[C@H](CO)[C@@H](O)[C@H](O)[C@H]2NC(=O)OC(C)(C)C)O[C@H](C[C@@H](O)[C@H]2O[C@@H](n3ccc(=O)[nH]c3=O)[C@H](O)[C@@H]2O)[C@H](O)[C@@H]1O [TUN-Boc,Boc, 10',2""-Di-N-Boc-α-D-glucosamine-(1”-11')-tunicamyl uracil]",MIC,Mtb H37Rv ATCC27294; [1],> 60 µg/mL
same,MIC,Mtb H37Rv ATCC27294; [2],> 60 µg/mL
same,"LD50 values, HEK293",HEK293 cells,"N/A (N/A = not available. No or low cytotoxicity observed at highest, saturating concentration tested (400 µg mL-1))"
same,"LD50 values, HepG2",HepG2 cells,"N/A (N/A = not available. No or low cytotoxicity observed at highest, saturating concentration tested (400 µg mL-1))"
same,"LD50 values, Raji",Raji cells,608.9 ± 394.9 µg/mL
"C[C@@H](O)[C@H]1C(=O)N2C(C(=O)O)=C(S[C@@H]3CN[C@H](C(=O)N(C)C)C3)[C@H](C)[C@H]12 [meropenem, reference compound]",MIC,"Mtb H37Rv ATCC27294; Mtb H37Rv, with clavulanate at a fixed concentration of 100 μM, read-out: MIC concentration for control",2 µM
